Results reported in publication PMC8015227, “Understanding the Metabolism of Proteolysis Targeting Chimeras (PROTACs): The Next Step toward Pharmaceutical Applications” (Journal of Medicinal Chemistry, 2020).
Where two headings read alike, the source gives them in different places.

What was measured:
CYP3A4 = CYP3A4 (Homo sapiens, UniProt P08684); assay: in vitro; conditions: pH 7.4
Method: (§1) Metabolism of the selected compounds was evaluated upon incubation with human liver cytosol (Gibco) and supersome recombinant CYP isoforms 3A4 expressed in baculovirus-infected insect cells (Gibco). For metabolism in CYP3A4, test compounds (1 μM) were incubated in 0.1 M potassium phosphate buffer (pH 7.4) and allowed to equilibrate at 37 °C. Freshly prepared 25 mM nicotinamide adenine dinucleotide phosphate (NADPH, 1 mM final concentration) was added to the incubation mixture to start the reaction. For metabolism in human liver cytosol, reactions were initiated by adding test compounds (1 μM) to the mix reaction constituted by the human liver cytosol (1 mg/mL) prewarmed in potassium phosphate buffer (pH 7.4). […] In both procedures, aliquots (50 μL) of the incubation mix were removed at 0, 10, 20, 30, and 60 min (CYP3A4) or 0, 30, 60, and 90 min (human liver cytosol) and added to 50 μL of ice-cold acetonitrile quench solution (internal standard, 1 μM labetalol) to stop the reaction. Samples were then centrifuged at 12 000 rpm for 5 min at 4 °C. The supernatant was concentrated by evaporation under a nitrogen stream and reconstituted in DMSO. The blank was prepared similarly but in the absence of the investigated compounds. Samples were then analyzed by LC–MS/MS (see the Analytical procedure).
(§2) A Thermo Q-exactive mass spectrometer (Thermo Fisher Scientific, Waltham, MA) was used. The LC system, governed by Chromeleon X-press software, consists of a Binary pump, a thermostated autosampler, and a column compartment, all Dionex Ultimate 3000 series modules (Thermo Fisher Scientific, Waltham, MA). A volume of 2 μL was injected for each sample. Chromatographic separation of analytes was conducted in reverse-phase chromatography. In brief, a Luna Omega 1.6 μm Polar (C18, 2.1 mm × 150 mm) was used, and the mobile phases consisted of water (A) and acetonitrile (B), both containing formic acid at 0.1%. The LC flow was set at 0.400 mL/min in a 12 min gradient elution as follows: 99.5:0.5 (A/B) to 5:95 (A/B) over 10 min, 5:95 (A/B) for 2 min, and then reversion back to 99.5:0.5 (A/B) over 2.5 min. The column was operating at a constant temperature of 40 °C.

[1] = Metabolic stability in cryopreserved human hepatocytes; assay type: in vitro ADME; conditions: human, cryopreserved human hepatocytes (pooled, suspension)
Method: Cryopreserved human hepatocytes (pooled suspension hepatocytes, Gibco) were thawed placing in a 37 °C shaking water bath according to the manufacturer’s specifications and resuspended in Williams E medium (WEM) to have 1 × 10^6 cells/mL. Samples with the test compound at 1 μM were incubated at 37 °C, and aliquots of 50 μL were collected at 0, 10, 30, 60, 120, and 240 min. The incubations were quenched 1:3 with ice-cold acetonitrile (containing 1 μM labetalol as the internal standard). Samples were then centrifuged at 12000 rpm for 5 min at 4 °C. The supernatant was concentrated by evaporation under a nitrogen stream and reconstituted with DMSO. Blank was prepared similarly but in the absence of the investigated compounds.
as §2

[2] = target: T1, human aldehyde oxidase (hAOX) in human liver cytosol (Homo sapiens, UniProt Q06278); assay: Metabolism in human liver cytosol with/without hydralazine (hAOX); assay type: in vitro ADME; conditions: for reactions observed in human liver cytosol: 30, 60, 90 min, absence and presence of hydralazine, both in the VHL ligand moiety; for hAOX percentage of substrate left at the final time point of analysis / hAOX t1/2: supplement CSV; for hAOX percentage of substrate left at the final time point of analysis: in brackets, final time point 90 min; for hAOX t1/2: human liver cytosol 1 mg/mL, up to 90 min
T1 construct: human aldehyde oxidase (hAOX), a cytosolic drug-metabolizing enzyme expressed in the human liver; tissue Gibco; host or cells: human liver cytosol
T1 sequence (Q06278 1-1338): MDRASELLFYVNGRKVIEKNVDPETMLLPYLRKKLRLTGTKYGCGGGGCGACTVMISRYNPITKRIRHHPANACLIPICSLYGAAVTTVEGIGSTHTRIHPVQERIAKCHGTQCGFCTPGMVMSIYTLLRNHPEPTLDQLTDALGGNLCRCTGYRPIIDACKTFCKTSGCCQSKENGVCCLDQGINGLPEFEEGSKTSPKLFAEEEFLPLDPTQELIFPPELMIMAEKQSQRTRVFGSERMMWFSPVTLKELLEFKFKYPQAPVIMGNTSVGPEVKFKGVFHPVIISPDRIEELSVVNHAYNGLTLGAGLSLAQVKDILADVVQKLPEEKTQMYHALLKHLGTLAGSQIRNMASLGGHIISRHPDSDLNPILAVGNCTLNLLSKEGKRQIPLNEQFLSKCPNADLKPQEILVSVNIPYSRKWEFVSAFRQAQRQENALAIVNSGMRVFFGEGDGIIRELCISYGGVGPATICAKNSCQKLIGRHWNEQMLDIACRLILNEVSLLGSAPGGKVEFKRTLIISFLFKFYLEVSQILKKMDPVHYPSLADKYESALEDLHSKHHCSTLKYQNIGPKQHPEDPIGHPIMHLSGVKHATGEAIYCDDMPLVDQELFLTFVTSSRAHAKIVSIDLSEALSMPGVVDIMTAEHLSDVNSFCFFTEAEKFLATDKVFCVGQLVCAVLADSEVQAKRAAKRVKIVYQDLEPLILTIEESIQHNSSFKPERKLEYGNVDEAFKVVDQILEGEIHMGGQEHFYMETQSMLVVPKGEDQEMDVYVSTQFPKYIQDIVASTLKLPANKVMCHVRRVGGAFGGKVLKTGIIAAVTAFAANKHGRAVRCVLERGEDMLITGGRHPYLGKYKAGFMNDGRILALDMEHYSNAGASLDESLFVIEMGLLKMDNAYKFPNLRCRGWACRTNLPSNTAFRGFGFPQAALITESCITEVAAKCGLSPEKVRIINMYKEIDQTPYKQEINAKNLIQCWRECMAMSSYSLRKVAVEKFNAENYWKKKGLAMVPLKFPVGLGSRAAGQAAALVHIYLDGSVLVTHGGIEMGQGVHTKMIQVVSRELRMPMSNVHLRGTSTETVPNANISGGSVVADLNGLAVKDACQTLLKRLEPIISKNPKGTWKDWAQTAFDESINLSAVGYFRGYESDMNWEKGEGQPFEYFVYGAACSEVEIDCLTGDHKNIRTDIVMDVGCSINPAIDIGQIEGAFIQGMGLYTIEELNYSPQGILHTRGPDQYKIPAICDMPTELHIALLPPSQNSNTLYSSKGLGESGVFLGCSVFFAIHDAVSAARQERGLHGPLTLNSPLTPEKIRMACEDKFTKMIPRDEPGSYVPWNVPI
Method: as §1, §2

[3] = target: T2, aldehyde oxidase (hAOX, AOX1) (Homo sapiens, UniProt Q06278); assay: as above; assay type: in vitro ADME; conditions: human, human liver cytosol, pH 7.4; Figure 7A
T2 construct: human aldehyde oxidase (hAOX), a cytosolic drug-metabolizing enzyme expressed in the human liver; tissue Gibco; host or cells: human liver cytosol
T2 sequence (Q06278 1-1338): T1 sequence (Q06278 1-1338)
Method: as §1, §2

[4] = Table S1, PROTACs, cryopreserved human hepatocytes, read-out: t1/2
[5] = supplement CSV, human hepatocytes, read-out: HLH t1/2
[6] = Figures 3-5, cryopreserved human hepatocytes, read-out: half-life (t1/2)

Chain of CYP3A4 (P08684 whole entry): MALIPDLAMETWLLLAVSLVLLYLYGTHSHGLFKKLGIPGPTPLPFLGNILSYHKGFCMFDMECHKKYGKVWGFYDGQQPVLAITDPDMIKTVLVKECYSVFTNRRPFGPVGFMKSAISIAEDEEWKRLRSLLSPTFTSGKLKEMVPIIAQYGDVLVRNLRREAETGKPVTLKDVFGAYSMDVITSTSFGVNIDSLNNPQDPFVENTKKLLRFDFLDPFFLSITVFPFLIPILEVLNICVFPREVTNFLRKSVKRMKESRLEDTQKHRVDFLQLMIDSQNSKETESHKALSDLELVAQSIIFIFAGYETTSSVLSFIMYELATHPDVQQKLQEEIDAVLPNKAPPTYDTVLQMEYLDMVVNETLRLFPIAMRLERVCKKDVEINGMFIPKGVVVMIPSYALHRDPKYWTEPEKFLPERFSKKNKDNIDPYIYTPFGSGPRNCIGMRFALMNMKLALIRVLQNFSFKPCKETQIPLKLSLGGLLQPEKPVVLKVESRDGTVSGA

half-life at 1 µM (CYP3A4)	half-life at 1 µM [1, 4]	half-life at 1 µM [1, 5]	hAOX percentage of substrate left at the final time point of analysis [2]	hAOX t1/2 [2]	half-life at 1 µM [3]	half-life at 1 µM [1, 6]	Structure (SMILES)	reactions observed in human liver cytosol [2]
7.4 min	53.5 min	53.5 min					O=C(COc1c(-c2csc(N3CCOCC3)n2)ccc(F)c1F)NCCCCCCNc1cccc2c1C(=O)N(C1CCC(=O)NC1=O)C2=O (stereo not drawn) [Compound 29, 2-(2,3-Difluoro-6-(2-morpholinothiazol-4-yl)phenoxy)-N-(6-((2-(2,6-dioxopiperidin-3-yl)-1,3-dioxoisoindolin-4-yl)amino)hexyl)acetamide]	
	86.1 min	86.1 min	83.4%	> 90 min	> 90 min		Cc1ncsc1-c1ccc([C@H](C)NC(=O)[C@@H]2C[C@@H](O)CN2C(=O)[C@@H](NC(=O)CCCCN(C)C(=O)COc2c(-c3csc(N4CCOCC4)n3)ccc(F)c2F)C(C)(C)C)cc1 [Compound 34]	the hydrolysis of an amide and an oxidation
	74.3 min	74.3 min	83.5%	> 90 min	> 90 min	74.3 min	Cc1ncsc1-c1ccc([C@H](C)NC(=O)[C@@H]2C[C@@H](O)CN2C(=O)[C@@H](NC(=O)CCCCNC(=O)COc2c(-c3csc(N4CCOCC4)n3)ccc(F)c2F)C(C)(C)C)cc1 [Compound 33]	the hydrolysis of an amide and an oxidation
1.1 min	49.4 min	49.4 min					Cc1sc2c(c1C)C(c1ccc(Cl)cc1)=N[C@@H](CC(=O)NCCOCCOCCNc1cccc3c1C(=O)N(C1CCC(=O)NC1=O)C3=O)c1nnc(C)n1-2 (stereo partly drawn) [Compound 5, 2-((S)-4-(4-Chlorophenyl)-2,3,9-trimethyl-6H-thieno[3,2-f][1,2,4]triazolo[4,3-a][1,4]diazepin-6-yl)-N-(2-(2-(2-((2-(2,6-dioxopiperidin-3-yl)-1,3-dioxoisoindolin-4-yl)amino)ethoxy)ethoxy)ethyl)acetamide]	
1.7 min	25 min	25 min				25 min	Cc1ncsc1-c1ccc([C@H](C)NC(=O)[C@@H]2C[C@@H](O)CN2C(=O)[C@@H](NC(=O)CCCCCCNC(=O)COc2c(-c3csc(N4CCOCC4)n3)ccc(F)c2F)C(C)(C)C)cc1 [Compound 35]	
22.6 min	66.7 min	66.7 min				66.7 min	Cc1ncsc1-c1ccc([C@H](CC(=O)NCCCCCCNC(=O)COc2c(-c3csc(N4CCOCC4)n3)ccc(F)c2F)NC(=O)[C@@H]2C[C@@H](O)CN2C(=O)[C@@H](NC(=O)C2(F)CC2)C(C)(C)C)cc1 [Compound 40]	
